Where two headings read alike, the source gives them in different places.
Tests used:
Type in all cases: biochemical
[1] = target: T1, human Yes1 enzyme (Homo sapiens, UniProt P07947); experiment: Yes1 enzyme inhibitory activity (time-resolved fluorometry, biotinylated peptide phosphorylation); conditions: read-out: YES_IC50
T1 construct: made in house
Method in brief: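 Inhibition was expressed against a compound-free control to give IC50, using TR-FRET read-out (Eu-cryptate anti-pTyr antibody, streptavidin-XL665).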

[2] = target: T2, human Src enzyme (Homo sapiens, UniProt P12931); experiment: Src enzyme inhibitory activity (time-resolved fluorometry, biotinylated peptide phosphorylation); conditions: read-out: SRC_IC50
T2 construct: purchased Carna Biosciences, Inc. 08-173
Method in brief: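 Compounds were tested for blocking tyrosine phosphorylation of a biotinylated peptide substrate by recombinant human Src. Phosphorylated product was quantified by time-resolved fluorometry using europium cryptate and XL665 conjugates, and IC50 was calculated against the compound-free control.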

[3] = target: T3, human Lck enzyme (Homo sapiens, UniProt P06239); experiment: Lck enzyme inhibitory activity (time-resolved fluorometry, biotinylated peptide phosphorylation); conditions: read-out: LCK_IC50
T3 construct: purchased Carna Biosciences, Inc. 08-170
Method in brief: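 Readout pairs a europium cryptate-labelled anti-phosphotyrosine antibody with XL665-streptavidin, measured by time-resolved fluorescence. IC50 derived from percent inhibition against untreated controls.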

[4] = biotinylated peptide phosphorylation

T1 sequence (P07947 whole entry): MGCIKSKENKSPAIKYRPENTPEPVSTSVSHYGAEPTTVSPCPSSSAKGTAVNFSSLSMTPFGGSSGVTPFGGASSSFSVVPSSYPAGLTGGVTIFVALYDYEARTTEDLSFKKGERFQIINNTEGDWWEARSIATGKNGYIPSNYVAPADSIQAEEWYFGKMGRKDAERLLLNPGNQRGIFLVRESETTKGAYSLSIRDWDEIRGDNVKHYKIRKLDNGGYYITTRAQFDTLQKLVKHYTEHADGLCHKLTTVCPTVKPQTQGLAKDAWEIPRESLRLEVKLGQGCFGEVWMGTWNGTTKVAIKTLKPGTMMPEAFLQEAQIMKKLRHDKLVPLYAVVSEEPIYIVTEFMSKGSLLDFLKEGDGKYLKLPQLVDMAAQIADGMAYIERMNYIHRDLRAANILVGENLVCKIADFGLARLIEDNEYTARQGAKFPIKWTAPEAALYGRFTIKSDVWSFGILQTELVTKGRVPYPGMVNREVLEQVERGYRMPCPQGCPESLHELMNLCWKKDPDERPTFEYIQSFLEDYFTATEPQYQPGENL
T3 sequence (P06239 whole entry): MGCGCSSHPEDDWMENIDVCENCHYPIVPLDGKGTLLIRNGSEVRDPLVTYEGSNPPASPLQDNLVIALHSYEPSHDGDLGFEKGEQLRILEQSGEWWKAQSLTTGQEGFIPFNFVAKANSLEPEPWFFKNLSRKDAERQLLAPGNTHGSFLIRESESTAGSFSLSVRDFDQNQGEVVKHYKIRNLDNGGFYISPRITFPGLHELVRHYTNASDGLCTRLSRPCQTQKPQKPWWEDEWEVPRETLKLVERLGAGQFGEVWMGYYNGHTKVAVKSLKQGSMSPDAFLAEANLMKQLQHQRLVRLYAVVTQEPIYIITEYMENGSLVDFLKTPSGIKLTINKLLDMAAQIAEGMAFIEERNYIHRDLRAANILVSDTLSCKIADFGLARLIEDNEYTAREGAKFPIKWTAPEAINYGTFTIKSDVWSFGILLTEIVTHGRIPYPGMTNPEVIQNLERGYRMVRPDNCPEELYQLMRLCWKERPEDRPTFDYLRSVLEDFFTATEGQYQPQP
T2 sequence (P12931 whole entry): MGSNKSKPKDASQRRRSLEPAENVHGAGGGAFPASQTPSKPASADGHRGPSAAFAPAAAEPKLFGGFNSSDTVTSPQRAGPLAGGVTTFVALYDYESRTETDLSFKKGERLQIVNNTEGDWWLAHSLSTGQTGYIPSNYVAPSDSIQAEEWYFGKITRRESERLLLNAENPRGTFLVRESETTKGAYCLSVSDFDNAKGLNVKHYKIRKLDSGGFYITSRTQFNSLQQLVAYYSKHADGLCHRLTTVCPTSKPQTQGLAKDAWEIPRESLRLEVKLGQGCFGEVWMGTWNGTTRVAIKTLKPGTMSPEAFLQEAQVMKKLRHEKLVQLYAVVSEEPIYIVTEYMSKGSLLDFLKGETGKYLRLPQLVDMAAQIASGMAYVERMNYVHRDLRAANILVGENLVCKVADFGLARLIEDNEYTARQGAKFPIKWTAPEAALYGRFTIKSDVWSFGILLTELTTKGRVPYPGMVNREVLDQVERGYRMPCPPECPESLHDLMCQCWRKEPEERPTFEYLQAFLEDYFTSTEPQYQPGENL

SMILES	IC50 [1, 4] [µM]	IC50 [2, 4] [µM]	IC50 [3, 4] [µM]	IC50 [1] [µM]	IC50 [2] [µM]	IC50 [3] [µM]
Cc1cc2cc(C(=O)c3cnn(-c4ccc(Oc5ccccc5F)cc4C)c3N)[nH]c2cc1N1C(=O)N[C@@H](CO)C1=O [Example 5-1-456, (5S)-3-[2-[5-amino-1-[4-(2-fluorophenoxy)-2-methylphenyl]pyrazole-4-carbonyl]-5-methyl-1H-indol-6-yl]-5-(hydroxymethyl)imidazolidine-2,4-dione]	0.0004	0.0088	0.0022			
Cc1cc(Oc2ccccc2F)ccc1-n1ncc(C(=O)c2cc3cc(OCC(F)F)c(NC4COC4)cc3[nH]2)c1N [Example 4-23-016, [5-amino-1-[4-(2-fluorophenoxy)-2-methylphenyl]pyrazol-4-yl]-[5-(2,2-difluoroethoxy)-6-(oxetan-3-ylamino)-1H-indol-2-yl]methanone]	0.00094	0.021	0.0054			
Cc1cc(-n2ncc(C(=O)c3cc4cc(N5CCOCC5)c(N5CCN(S(C)(=O)=O)CC5)cc4[nH]3)c2N)ccc1Oc1ccccc1F [Example 5-1-158, [5-amino-1-[4-(2-fluorophenoxy)-3-methylphenyl]pyrazol-4-yl]-[6-(4-methylsulfonylpiperazin-1-yl)-5-morpholin-4-yl-1H-indol-2-yl]methanone]				0.0009	0.076	0.042
Cc1cc(Oc2ccccc2F)ccc1-n1ncc(C(=O)c2cc3cc(N4CCOCC4)c(N4CCOC4=O)cc3[nH]2)c1N [Example 5-1-106, 3-[2-[5-amino-1-[4-(2-fluorophenoxy)-2-methylphenyl]pyrazole-4-carbonyl]-5-morpholin-4-yl-1H-indol-6-yl]-1,3-oxazolidin-2-one]				0.00042	0.002	0.0011
Cc1cc(-n2ncc(C(=O)c3cc4cc(OC[C@H](O)CO)c(Br)cc4[nH]3)c2N)ccc1Oc1ccccc1F [Example 5-1-237, (R)-(5-amino-1-(4-(2-fluorophenoxy)-3-methylphenyl)-1H-pyrazol-4-yl)(6-bromo-5-(2,3-dihydroxypropoxy)-1H-indol-2-yl)methanone]				0.0015	0.18	0.036
Cc1cc2cc(C(=O)c3cnn(-c4cnc(Oc5c(F)cccc5F)cc4C)c3N)[nH]c2cc1N1C(=O)NC2(CCN(Cc3ccccc3)CC2)C1=O [Example 5-1-361, 3-[2-[5-amino-1-[6-(2,6-difluorophenoxy)-4-methylpyridin-3-yl]pyrazole-4-carbonyl]-5-methyl-1H-indol-6-yl]-8-benzyl-1,3,8-triazaspiro[4.5]decane-2,4-dione]				0.0092	0.17	0.026
Cc1cc(Oc2ccccc2F)ncc1-n1ncc(C(=O)c2cc3cc(OCC(F)F)c(NS(C)(=O)=O)cc3[nH]2)c1N [Example 4-24-028, N-[2-[5-amino-1-[6-(2-fluorophenoxy)-4-methylpyridin-3-yl]pyrazole-4-carbonyl]-5-(2,2-difluoroethoxy)-1H-indol-6-yl]methanesulfonamide]	0.0012	0.037	0.014			
Cc1cc(Oc2cccc(F)c2F)nc(C)c1-n1ncc(C(=O)c2cc3cc(F)c(NS(C)(=O)=O)cc3[nH]2)c1N [Example 5-1-053, N-[2-[5-amino-1-[6-(2,3-difluorophenoxy)-2,4-dimethylpyridin-3-yl]pyrazole-4-carbonyl]-5-fluoro-1H-indol-6-yl]methanesulfonamide]				0.065	0.43	0.097
Cc1cnc(F)c(S(=O)(=O)Nc2cc3[nH]c(C(=O)c4cnn(-c5cnc(Oc6c(F)cccc6F)cc5C)c4N)cc3cc2F)c1 [Example 5-1-523, N-[2-[5-amino-1-[6-(2,6-difluorophenoxy)-4-methylpyridin-3-yl]pyrazole-4-carbonyl]-5-fluoro-1H-indol-6-yl]-2-fluoro-5-methylpyridine-3-sulfonamide]	0.0063	0.45	0.2			
Cc1cc(Oc2c(F)cccc2F)ncc1-n1ncc(C(=O)c2cc3cc(F)c(NS(=O)(=O)c4cccc(F)n4)cc3[nH]2)c1N [Example 5-1-518, N-[2-[5-amino-1-[6-(2,6-difluorophenoxy)-4-methylpyridin-3-yl]pyrazole-4-carbonyl]-5-fluoro-1H-indol-6-yl]-6-fluoropyridine-2-sulfonamide]	0.0058	0.57	0.082			
CC(C)N1CCC(c2cc3cc(C(=O)c4cnn(-c5ccc(Oc6ccccc6Cl)cc5)c4N)[nH]c3cc2F)CC1 [Example 5-1-001, [5-amino-1-[4-(2-chlorophenoxy)phenyl]pyrazol-4-yl]-[6-fluoro-5-(1-propan-2-ylpiperidin-4-yl)-1H-indol-2-yl]methanone]				0.0011	0.0076	0.0029
Cc1cc2cc(C(=O)c3cnn(-c4ccc(Oc5cc(F)ccc5F)cc4C)c3N)[nH]c2cc1NS(C)(=O)=O [Example 5-1-107, N-[2-[5-amino-1-[4-(2,5-difluorophenoxy)-2-methylphenyl]pyrazole-4-carbonyl]-5-methyl-1H-indol-6-yl]methanesulfonamide]				0.0015	0.096	0.0079
Cc1cc2cc(C(=O)c3cnn(-c4cnc(Oc5c(F)cccc5F)cc4C)c3N)[nH]c2cc1N1C(=O)NC(C)(C(F)(F)F)C1=O (stereo not drawn) [Example 5-1-429, 3-[2-[5-amino-1-[6-(2,6-difluorophenoxy)-4-methylpyridin-3-yl]pyrazole-4-carbonyl]-5-methyl-1H-indol-6-yl]-5-methyl-5-(trlfluoromethyl)imidazolidine-2,4-dione]	0.0075	0.19	0.025			
Cc1cc(Oc2cc(F)ccc2F)ncc1-n1ncc(C(=O)c2cc3cc(F)c(NS(C)(=O)=O)cc3[nH]2)c1N [Example 4-2-030, N-[2-[5-amino-1-[6-(2,5-difluorophenoxy)-4-methylpyridin-3-yl]pyrazole-4-carbonyl]-5-fluoro-1H-indol-6-yl]methanesulfonamide]	0.0017	0.11	0.026			
Cc1cc(Oc2cccc(Cl)c2)ncc1-n1ncc(C(=O)c2cc3cc(F)c(NS(=O)(=O)CCCF)cc3[nH]2)c1N [Example 4-2-026, N-[2-[5-amino-1-[6-(3-chlorophenoxy)-4-methylpyridin-3-yl]pyrazole-4-carbonyl]-5-fluoro-1H-indol-6-yl]-3-fluoropropane-1-sulfonamide]	0.0036	0.12	0.037			
Cc1cc(-n2ncc(C(=O)c3cc4cc(OC5CCN(C(C)C)CC5)c(NS(C)(=O)=O)cc4[nH]3)c2N)ccc1Oc1ccccc1F [Example 5-1-156, N-(2-(5-amino-1-(4-(2-fluorophenoxy)-3-methylphenyl)-1H-pyrazole-4-carbonyl)-5-((1-isopropylpiperidin-4-yl)oxy)-1H-indol-6-yl)methanesulfonamide]				0.0016	1.1	0.064
COc1ccnc(S(=O)(=O)Nc2cc3[nH]c(C(=O)c4cnn(-c5cnc(Oc6ccccc6F)cc5C)c4N)cc3cc2C)c1 [Example 5-1-482, N-[2-[5-amino-1-[6-(2-fluorophenoxy)-4-methylpyridin-3-yl]pyrazole-4-carbonyl]-5-methyl-1H-indol-6-yl]-4-methoxypyridine-2-sulfonamide]	0.0063	0.48	0.14			
Cc1cc(Oc2ccccc2F)ncc1-n1ncc(C(=O)c2cc3cc(OC(F)F)c(C4CCN(S(C)(=O)=O)CC4)cc3[nH]2)c1N [Example 4-17-009, [5-amino-1-[6-(2-fluorophenoxy)-4-methylpyridin-3-yl]pyrazol-4-yl]-[5-(difluoromethoxy)-6-(1-methylsulfonylpiperidin-4-yl)-1H-indol-2-yl]methanone]	0.0018	0.014	0.0049			
CC(=O)N1CCC(c2cc3[nH]c(C(=O)c4cnn(-c5ccc(Oc6ccccc6F)cc5C)c4N)cc3cc2OC(F)F)CC1 [Example 4-17-002, 1-[4-[2-[5-amino-1-[4-(2-fluorophenoxy)-2-methylphenyl]pyrazole-4-carbonyl]-5-(difluoromethoxy)-1H-indol-6-yl]piperidin-1-yl]ethanone]	0.01	0.043	0.018			
Cc1cc(Oc2ccccc2F)ccc1-n1ncc(C(=O)c2cc3cc(OCC(F)F)c(N4C(=O)[C@@H]5C[C@H](NC(=O)OCc6ccccc6)CN5C4=O)cc3[nH]2)c1N [Example 5-1-273, Benzyl N-[(6S,7aS)-2-[2-[5-amino-1-[4-(2-fluorophenoxy)-2-methylphenyl]pyrazole-4-carbonyl]-5-(2,2-difluoroethoxy)-1H-indol-6-yl]-1,3-dioxo-5,6,7,7a-tetrahydropyrrolo[1,2-c]imidazol-6-yl]carbamate]				0.0018	0.033	0.015
Cc1cc(-n2ncc(C(=O)c3cc4cc(OC5CCN(C(C)C)CC5)c(-c5cnn(C)c5)cc4[nH]3)c2N)ccc1Oc1ccccc1F [Example 5-1-236, (5-amino-1-(4-(2-fluorophenoxy)-3-methylphenyl)-1H-pyrazol-4-yl)(5-((1-isopropylpiperidin-4-yl)oxy)-6-(1-methyl-1H-pyrazol-4-yl)-1H-indol-2-yl)methanone]				0.0015	0.14	0.041
Cc1cc2cc(C(=O)c3cnn(-c4cnc(Oc5cccc(F)c5F)cc4C)c3N)[nH]c2cc1NS(C)(=O)=O [Example 4-2-062, N-[2-[5-amino-1-[6-(2,3-difluorophenoxy)-4-methylpyridin-3-yl]pyrazole-4-carbonyl]-5-methyl-1H-indol-6-yl]methanesulfonamide]	0.0032	0.13	0.021			

Source: patent publication US10479780B2, “Aminopyrazole derivatives” (Chugai Seiyaku Kabushiki Kaisha, priority 2015, dated 2019)
